Tests used:
Experiment in all cases: KINOMEscan competition binding
Conditions in all cases: compound 10.0 µM
RPS6KA5 KD1 (human) = RPS6KA5 KD1 (human) (UniProt O75582)
TEC (human) = TEC (human) (UniProt P42680)
[1] = tested on: ABL1 (human), P00519 [H396P]
PKN2 (human) = PKN2 (human) (UniProt Q16513)
GSK3B (human) = GSK3B (human) (UniProt P49841)
TEK (human) = TEK (human) (UniProt Q02763)
DCLK2 (human) = DCLK2 (human) (UniProt Q8N568)
MAPK11 (human) = MAPK11 (human) (UniProt Q15759)
SLK (human) = SLK (human) (UniProt Q9H2G2)
CDC2L2 (human) = CDC2L2 (human) (UniProt Q9UQ88)
EPHA4 (human) = EPHA4 (human) (UniProt P54764)
STK32C (human) = STK32C (human) (UniProt Q86UX6)
LIMK2 (human) = LIMK2 (human) (UniProt P53671)
CDK9 (human) = CDK9 (human) (UniProt P50750)
MAP2K1 (human) = MAP2K1 (human) (UniProt Q02750)
[2] = tested on: RET (human), P07949 [M918T]
STK32B (human) = STK32B (human) (UniProt Q9NY57)
EPHA2 (human) = EPHA2 (human) (UniProt P29317)
PRKD2 (human) = PRKD2 (human) (UniProt Q9BZL6)
AURKA (human) = AURKA (human) (UniProt O14965)
PRKCQ (human) = PRKCQ (human) (UniProt Q04759)
IRAK3 (human) = IRAK3 (human) (UniProt Q9Y616)
NEK9 (human) = NEK9 (human) (UniProt Q8TD19)
MST4 (human) = MST4 (human) (UniProt Q9P289)
CDK15 (human) = CDK15 (human) (UniProt Q96Q40)
PDGFRA (human) = PDGFRA (human) (UniProt P16234)
CHEK1 (human) = CHEK1 (human) (UniProt O14757)
STK3 (human) = STK3 (human) (UniProt Q13188)
ADCK3 (human) = ADCK3 (human) (UniProt Q8NI60)
BTK (human) = BTK (human) (UniProt Q06187)
RET (human) = RET (human) (UniProt P07949)
[3] = tested on: ABL1 (human), P00519 [T315I]
MAP2K6 (human) = MAP2K6 (human) (UniProt P52564)
MAPK14 (human) = MAPK14 (human) (UniProt Q16539)
[4] = target: JAK2 JH1 catalytic (human) (UniProt O60674)
SYK (human) = SYK (human) (UniProt P43405)
PIK3CA (human) = PIK3CA (human) (UniProt P42336)
TXK (human) = TXK (human) (UniProt P42681)
MAP3K11 (human) = MAP3K11 (human) (UniProt Q16584)
[5] = tested on: ABL1 (human), P00519 [F317I]
CAMK4 (human) = CAMK4 (human) (UniProt Q16566)
PDPK1 (human) = PDPK1 (human) (UniProt O15530)
PDPK1 (human), sequence (O15530 whole entry, looked up): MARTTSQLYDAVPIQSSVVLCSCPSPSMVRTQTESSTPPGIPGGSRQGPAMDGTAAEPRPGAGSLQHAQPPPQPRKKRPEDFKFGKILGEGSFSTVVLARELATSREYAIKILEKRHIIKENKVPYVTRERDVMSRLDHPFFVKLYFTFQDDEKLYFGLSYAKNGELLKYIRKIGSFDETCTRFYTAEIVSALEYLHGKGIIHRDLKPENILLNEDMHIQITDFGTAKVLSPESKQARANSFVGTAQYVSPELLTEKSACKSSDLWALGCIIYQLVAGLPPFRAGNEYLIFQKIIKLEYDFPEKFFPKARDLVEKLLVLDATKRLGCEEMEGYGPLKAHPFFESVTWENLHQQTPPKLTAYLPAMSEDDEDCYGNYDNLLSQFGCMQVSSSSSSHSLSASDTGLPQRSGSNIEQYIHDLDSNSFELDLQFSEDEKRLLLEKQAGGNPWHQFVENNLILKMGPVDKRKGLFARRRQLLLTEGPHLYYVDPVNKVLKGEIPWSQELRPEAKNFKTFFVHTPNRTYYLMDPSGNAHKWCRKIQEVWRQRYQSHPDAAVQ

TXK (human), sequence (P42681 whole entry, looked up): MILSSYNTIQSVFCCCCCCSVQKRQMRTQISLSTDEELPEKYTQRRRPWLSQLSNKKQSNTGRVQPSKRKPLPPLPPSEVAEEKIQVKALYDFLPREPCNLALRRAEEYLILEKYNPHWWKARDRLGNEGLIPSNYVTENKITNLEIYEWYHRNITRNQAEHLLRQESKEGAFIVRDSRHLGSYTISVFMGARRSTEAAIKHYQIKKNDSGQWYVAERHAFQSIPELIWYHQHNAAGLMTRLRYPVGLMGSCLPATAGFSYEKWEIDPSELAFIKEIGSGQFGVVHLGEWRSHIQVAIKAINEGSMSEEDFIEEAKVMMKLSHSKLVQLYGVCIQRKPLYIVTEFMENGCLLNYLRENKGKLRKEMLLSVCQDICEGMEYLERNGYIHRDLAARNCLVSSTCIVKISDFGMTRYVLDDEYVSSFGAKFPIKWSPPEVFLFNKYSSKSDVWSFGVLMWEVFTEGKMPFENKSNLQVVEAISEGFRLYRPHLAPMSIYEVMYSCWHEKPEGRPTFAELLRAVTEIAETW
EPHA4 (human), sequence (P54764 whole entry, looked up): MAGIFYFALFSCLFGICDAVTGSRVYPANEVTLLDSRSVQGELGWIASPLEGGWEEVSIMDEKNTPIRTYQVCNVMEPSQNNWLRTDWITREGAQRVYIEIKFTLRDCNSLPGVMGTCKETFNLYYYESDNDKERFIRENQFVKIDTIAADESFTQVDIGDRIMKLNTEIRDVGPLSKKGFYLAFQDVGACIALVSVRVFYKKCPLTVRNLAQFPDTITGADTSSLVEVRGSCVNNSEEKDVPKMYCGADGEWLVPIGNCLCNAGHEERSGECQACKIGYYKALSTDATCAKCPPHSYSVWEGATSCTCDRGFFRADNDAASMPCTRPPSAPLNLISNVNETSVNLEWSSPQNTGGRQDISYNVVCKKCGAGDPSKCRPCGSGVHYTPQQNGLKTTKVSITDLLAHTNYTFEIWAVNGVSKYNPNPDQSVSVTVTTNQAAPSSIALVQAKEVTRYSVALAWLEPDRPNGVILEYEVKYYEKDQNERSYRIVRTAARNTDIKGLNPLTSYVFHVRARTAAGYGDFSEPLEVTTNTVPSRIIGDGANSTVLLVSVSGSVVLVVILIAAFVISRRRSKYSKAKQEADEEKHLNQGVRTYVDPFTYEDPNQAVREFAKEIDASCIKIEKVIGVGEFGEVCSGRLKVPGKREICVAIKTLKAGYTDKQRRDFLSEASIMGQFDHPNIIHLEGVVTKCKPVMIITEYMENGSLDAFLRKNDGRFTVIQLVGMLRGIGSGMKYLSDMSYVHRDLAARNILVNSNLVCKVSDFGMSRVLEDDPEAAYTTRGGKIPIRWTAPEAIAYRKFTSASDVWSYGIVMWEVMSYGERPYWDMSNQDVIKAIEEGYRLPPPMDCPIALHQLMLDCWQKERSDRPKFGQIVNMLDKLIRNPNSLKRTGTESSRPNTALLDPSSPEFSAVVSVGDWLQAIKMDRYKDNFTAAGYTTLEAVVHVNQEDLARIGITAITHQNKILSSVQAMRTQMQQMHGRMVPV
RET (human), P07949 [M918T], sequence (P07949 whole entry M918T, looked up): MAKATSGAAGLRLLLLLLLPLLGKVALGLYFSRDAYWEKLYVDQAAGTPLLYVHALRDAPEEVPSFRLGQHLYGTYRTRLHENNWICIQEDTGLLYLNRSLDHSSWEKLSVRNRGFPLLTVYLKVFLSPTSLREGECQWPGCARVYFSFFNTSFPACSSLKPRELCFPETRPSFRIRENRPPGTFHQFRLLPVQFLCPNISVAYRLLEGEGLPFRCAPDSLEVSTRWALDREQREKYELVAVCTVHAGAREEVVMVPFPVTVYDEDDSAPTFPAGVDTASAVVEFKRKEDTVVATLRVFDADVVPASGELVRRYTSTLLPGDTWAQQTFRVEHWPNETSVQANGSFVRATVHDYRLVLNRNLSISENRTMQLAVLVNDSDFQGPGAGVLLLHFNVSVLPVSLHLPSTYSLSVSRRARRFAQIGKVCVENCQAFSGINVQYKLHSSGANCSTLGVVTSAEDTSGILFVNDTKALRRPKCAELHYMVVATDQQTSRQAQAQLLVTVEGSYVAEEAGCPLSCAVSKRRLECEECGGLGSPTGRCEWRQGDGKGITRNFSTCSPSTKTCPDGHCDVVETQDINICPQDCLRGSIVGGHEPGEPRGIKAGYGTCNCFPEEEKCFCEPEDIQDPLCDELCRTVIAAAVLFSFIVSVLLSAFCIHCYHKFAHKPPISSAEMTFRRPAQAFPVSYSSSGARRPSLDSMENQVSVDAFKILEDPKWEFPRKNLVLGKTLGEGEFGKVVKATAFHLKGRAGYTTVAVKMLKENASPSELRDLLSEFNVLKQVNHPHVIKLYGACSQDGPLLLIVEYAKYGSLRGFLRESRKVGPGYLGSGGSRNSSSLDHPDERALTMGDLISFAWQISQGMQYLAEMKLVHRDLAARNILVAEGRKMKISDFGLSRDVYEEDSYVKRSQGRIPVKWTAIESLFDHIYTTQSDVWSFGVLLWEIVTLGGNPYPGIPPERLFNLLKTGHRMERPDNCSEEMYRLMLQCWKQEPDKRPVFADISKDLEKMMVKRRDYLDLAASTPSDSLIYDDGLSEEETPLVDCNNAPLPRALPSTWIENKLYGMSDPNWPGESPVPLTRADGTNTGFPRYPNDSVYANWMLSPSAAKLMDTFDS
IRAK3 (human), sequence (Q9Y616 whole entry, looked up): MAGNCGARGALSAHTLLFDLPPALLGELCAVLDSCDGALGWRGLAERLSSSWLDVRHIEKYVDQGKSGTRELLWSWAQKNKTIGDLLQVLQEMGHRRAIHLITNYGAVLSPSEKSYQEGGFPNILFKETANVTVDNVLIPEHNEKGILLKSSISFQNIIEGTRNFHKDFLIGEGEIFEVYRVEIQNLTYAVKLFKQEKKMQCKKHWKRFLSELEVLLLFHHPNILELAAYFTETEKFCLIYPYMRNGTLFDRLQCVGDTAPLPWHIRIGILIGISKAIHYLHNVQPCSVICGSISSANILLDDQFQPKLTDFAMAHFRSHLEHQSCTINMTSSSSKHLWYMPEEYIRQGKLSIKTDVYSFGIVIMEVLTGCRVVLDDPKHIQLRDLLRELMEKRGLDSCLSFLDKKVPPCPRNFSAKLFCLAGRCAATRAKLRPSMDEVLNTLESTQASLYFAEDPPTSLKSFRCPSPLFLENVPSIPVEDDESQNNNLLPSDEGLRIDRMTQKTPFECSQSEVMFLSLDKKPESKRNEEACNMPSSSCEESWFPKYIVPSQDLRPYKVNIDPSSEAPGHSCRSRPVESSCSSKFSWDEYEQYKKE
MAP2K1 (human), sequence (Q02750 whole entry, looked up): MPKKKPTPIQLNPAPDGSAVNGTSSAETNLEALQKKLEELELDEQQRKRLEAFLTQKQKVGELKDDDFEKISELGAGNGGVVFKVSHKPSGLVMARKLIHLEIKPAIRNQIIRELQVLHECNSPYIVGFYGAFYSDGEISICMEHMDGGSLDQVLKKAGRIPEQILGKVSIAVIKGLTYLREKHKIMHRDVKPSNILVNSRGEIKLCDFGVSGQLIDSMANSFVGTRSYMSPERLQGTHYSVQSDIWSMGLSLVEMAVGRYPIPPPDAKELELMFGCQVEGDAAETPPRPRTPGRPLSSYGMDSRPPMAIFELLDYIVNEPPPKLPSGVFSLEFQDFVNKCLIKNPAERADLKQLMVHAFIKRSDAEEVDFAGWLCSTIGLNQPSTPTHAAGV
MAP3K11 (human), sequence (Q16584 whole entry, looked up): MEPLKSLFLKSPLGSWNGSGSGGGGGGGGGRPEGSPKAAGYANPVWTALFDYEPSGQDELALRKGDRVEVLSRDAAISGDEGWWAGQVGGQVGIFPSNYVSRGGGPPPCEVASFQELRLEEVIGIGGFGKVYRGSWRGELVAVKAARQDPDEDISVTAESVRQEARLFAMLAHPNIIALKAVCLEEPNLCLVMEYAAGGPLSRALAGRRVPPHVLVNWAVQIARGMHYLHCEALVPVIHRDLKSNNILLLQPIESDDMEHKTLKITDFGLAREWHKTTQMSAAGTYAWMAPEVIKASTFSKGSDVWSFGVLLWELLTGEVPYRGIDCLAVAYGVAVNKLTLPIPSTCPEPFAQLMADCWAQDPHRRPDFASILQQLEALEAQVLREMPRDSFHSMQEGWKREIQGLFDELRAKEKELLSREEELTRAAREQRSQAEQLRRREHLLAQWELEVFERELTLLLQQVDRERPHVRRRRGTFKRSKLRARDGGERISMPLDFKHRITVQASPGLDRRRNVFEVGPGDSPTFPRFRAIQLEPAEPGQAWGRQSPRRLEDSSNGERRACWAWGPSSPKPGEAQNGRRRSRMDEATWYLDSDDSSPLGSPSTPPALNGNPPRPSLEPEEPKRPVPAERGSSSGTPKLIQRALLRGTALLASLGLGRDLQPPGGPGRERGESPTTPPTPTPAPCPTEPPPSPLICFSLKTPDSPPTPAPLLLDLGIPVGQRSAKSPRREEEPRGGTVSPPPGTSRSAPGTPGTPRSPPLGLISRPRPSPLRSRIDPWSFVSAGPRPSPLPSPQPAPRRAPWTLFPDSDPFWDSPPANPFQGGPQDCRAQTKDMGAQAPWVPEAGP
RET (human), sequence (P07949 whole entry, looked up): as the sequence (P07949 whole entry M918T, looked up) above, with T918M counted along it

Structure (SMILES): CN1CCN(c2ccc(C(=O)Nc3ncc4c(n3)N(C)c3ccccc3C(=O)N4C)cc2)CC1
- kinase still bound, per cent of control (RPS6KA5 KD1 (human)): 87%
- kinase still bound, per cent of control (TEC (human)): 93%
- kinase still bound, per cent of control [1]: 88%
- kinase still bound, per cent of control (PKN2 (human)): 78%
- kinase still bound, per cent of control (GSK3B (human)): 79%
- kinase still bound, per cent of control (TEK (human)): 100%
- kinase still bound, per cent of control (DCLK2 (human)): 22%
- kinase still bound, per cent of control (MAPK11 (human)): 100%
- kinase still bound, per cent of control (SLK (human)): 100%
- kinase still bound, per cent of control (CDC2L2 (human)): 100%
- kinase still bound, per cent of control (EPHA4 (human)): 97%
- kinase still bound, per cent of control (STK32C (human)): 100%
- kinase still bound, per cent of control (LIMK2 (human)): 100%
- kinase still bound, per cent of control (CDK9 (human)): 100%
- kinase still bound, per cent of control (MAP2K1 (human)): 100%
- kinase still bound, per cent of control [2]: 98%
- kinase still bound, per cent of control (STK32B (human)): 100%
- kinase still bound, per cent of control (EPHA2 (human)): 100%
- kinase still bound, per cent of control (PRKD2 (human)): 100%
- kinase still bound, per cent of control (AURKA (human)): 96%
- kinase still bound, per cent of control (PRKCQ (human)): 100%
- kinase still bound, per cent of control (IRAK3 (human)): 92%
- kinase still bound, per cent of control (NEK9 (human)): 100%
- kinase still bound, per cent of control (MST4 (human)): 100%
- kinase still bound, per cent of control (CDK15 (human)): 88%
- kinase still bound, per cent of control (PDGFRA (human)): 100%
- kinase still bound, per cent of control (CHEK1 (human)): 100%
- kinase still bound, per cent of control (STK3 (human)): 82%
- kinase still bound, per cent of control (ADCK3 (human)): 100%
- kinase still bound, per cent of control (BTK (human)): 100%
- kinase still bound, per cent of control (RET (human)): 100%
- kinase still bound, per cent of control [3]: 85%
- kinase still bound, per cent of control (MAP2K6 (human)): 100%
- kinase still bound, per cent of control (MAPK14 (human)): 100%
- kinase still bound, per cent of control [4]: 6.2%
- kinase still bound, per cent of control (SYK (human)): 100%
- kinase still bound, per cent of control (PIK3CA (human)): 100%
- kinase still bound, per cent of control (TXK (human)): 100%
- kinase still bound, per cent of control (MAP3K11 (human)): 100%
- kinase still bound, per cent of control [5]: 96%
- kinase still bound, per cent of control (CAMK4 (human)): 100%
- kinase still bound, per cent of control (PDPK1 (human)): 100%

Structure (SMILES): CN1C(=O)c2ccccc2N(C)c2nc(Nc3ccc(N4CCC(O)CC4)cc3)ncc21
- kinase still bound, per cent of control (RPS6KA5 KD1 (human)): 100%
- kinase still bound, per cent of control (TEC (human)): 100%
- kinase still bound, per cent of control [1]: 0.15%
- kinase still bound, per cent of control (PKN2 (human)): 92%
- kinase still bound, per cent of control (GSK3B (human)): 88%
- kinase still bound, per cent of control (TEK (human)): 72%
- kinase still bound, per cent of control (DCLK2 (human)): 0.6%
- kinase still bound, per cent of control (MAPK11 (human)): 88%
- kinase still bound, per cent of control (SLK (human)): 100%
- kinase still bound, per cent of control (CDC2L2 (human)): 100%
- kinase still bound, per cent of control (EPHA4 (human)): 97%
- kinase still bound, per cent of control (STK32C (human)): 100%
- kinase still bound, per cent of control (LIMK2 (human)): 100%
- kinase still bound, per cent of control (CDK9 (human)): 100%
- kinase still bound, per cent of control (MAP2K1 (human)): 100%
- kinase still bound, per cent of control [2]: 4.2%
- kinase still bound, per cent of control (STK32B (human)): 100%
- kinase still bound, per cent of control (EPHA2 (human)): 99%
- kinase still bound, per cent of control (PRKD2 (human)): 99%
- kinase still bound, per cent of control (AURKA (human)): 2.4%
- kinase still bound, per cent of control (PRKCQ (human)): 92%
- kinase still bound, per cent of control (IRAK3 (human)): 82%
- kinase still bound, per cent of control (NEK9 (human)): 100%
- kinase still bound, per cent of control (MST4 (human)): 27%
- kinase still bound, per cent of control (CDK15 (human)): 100%
- kinase still bound, per cent of control (PDGFRA (human)): 100%
- kinase still bound, per cent of control (CHEK1 (human)): 76%
- kinase still bound, per cent of control (STK3 (human)): 27%
- kinase still bound, per cent of control (ADCK3 (human)): 100%
- kinase still bound, per cent of control (BTK (human)): 100%
- kinase still bound, per cent of control (RET (human)): 15%
- kinase still bound, per cent of control [3]: 3.6%
- kinase still bound, per cent of control (MAP2K6 (human)): 100%
- kinase still bound, per cent of control (MAPK14 (human)): 100%
- kinase still bound, per cent of control [4]: 1.3%
- kinase still bound, per cent of control (SYK (human)): 61%
- kinase still bound, per cent of control (PIK3CA (human)): 98%
- kinase still bound, per cent of control (TXK (human)): 85%
- kinase still bound, per cent of control (MAP3K11 (human)): 100%
- kinase still bound, per cent of control [5]: 28%
- kinase still bound, per cent of control (CAMK4 (human)): 100%
- kinase still bound, per cent of control (PDPK1 (human)): 97%

From the kinase profiling compilation of Christmann-Franck et al. (2016)
